Reference: patent US12649750B2, “Macrocyclic compounds, compositions, and methods of using thereof” (Sionna Therapeutics Inc., priority 2022, dated 2026)

Biological target: T1, NBD1 (Homo sapiens, UniProt P13569)
T1 construct: Purified recombinant NBD1 was produced using previously described methods; made in house
Assay: Aggregation analysis using differential static light scattering (DSLS), thermal stability of NBD1 (ΔTagg)
Assay type: binding
Conditions: ΔTagg versus DMSO control, NBD1 0.2 mg/ml
In short: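 Thermal aggregation of purified NBD1 was followed by static light scattering during a 1° C./min ramp to 70° C. Protein was at 0.2 mg/ml with 2 mM ATP at pH7.6. Each compound's Tagg was referenced to DMSO controls.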

T1 sequence (P13569 423-646 limits assumed): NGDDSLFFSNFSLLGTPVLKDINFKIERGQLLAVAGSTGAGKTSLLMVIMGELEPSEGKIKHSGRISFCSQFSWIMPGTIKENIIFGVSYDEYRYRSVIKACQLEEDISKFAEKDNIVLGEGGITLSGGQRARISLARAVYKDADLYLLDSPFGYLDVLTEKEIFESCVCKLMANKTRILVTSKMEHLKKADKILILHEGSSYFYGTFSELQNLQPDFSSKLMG

SMILES	DSLS 3D (100 μM ΔT)
Cn1nc2nc1-c1cc(ccn1)S(=O)(=O)c1c(F)c(F)c3[nH]ccc3c1CCS(=O)(=O)CC(C)(C)CCC[C@]2(C)c1cccc(C[C@H](O)CO)c1 [Compound 342]	A (an ΔTagg value less than or equal to 5 °C is marked “A”)
C[C@H](Cc1cccc([C@@]2(C)CCCC(C)(C)CS(=O)(=O)CCc3c(c(F)c(F)c4[nH]cc(F)c34)Oc3ccc(F)c(c3)-c3nc2nn3C)c1)C(=O)O [Compound 345, (2R)-2-Methyl-3-[3-[(6R)-17,21,22,28-tetrafluoro-3,6,10,10-tetramethyl-12,12-dioxo-24-oxa-12λ6-thia-3,4,19,30-tetrazapentacyclo[23.3.1.12,5.015,23.016,20]triaconta-1(29),2(30),4,15,17,20,22,25,27-nonaen-6-yl]phenyl]propanoic Acid]	B (a value above 5 °C and less than or equal to 10 °C is marked “B”)
C[C@@H](Cc1cccc([C@@]2(C)CCCC(C)(C)CS(=O)(=O)CCc3c(c(F)c(F)c4[nH]ccc34)S(=O)(=O)c3ccnc(c3)-c3nc2nn3C)c1)C(=O)O [Compound 346, (2S)-3-[3-[(6R)-21,22-Difluoro-3,6,10,10-tetramethyl-12,12,24,24-tetraoxo-12λ6,24λ6-dithia-3,4,19,28,30-pentazapentacyclo[23.3.1.12,5.015,23.016,20]triaconta-1(29),2(30),4,15,17,20,22,25,27-nonaen-6-yl]phenyl]-2-methyl-propanoic Acid]	B (a value above 5 °C and less than or equal to 10 °C is marked “B”)
C[C@@H](Cc1cccc([C@@]2(C)CCCC(C)(C)CS(=O)(=O)CCc3c(c(F)cc4[nH]ccc34)S(=O)(=O)c3ccnc(c3)-c3nc2nn3C)c1)C(=O)O [Compound 347, (2S)-3-[3-[(6R)-22-Fluoro-3,6,10,10-tetramethyl-12,12,24,24-tetraoxo-12λ6,24λ6-dithia-3,4,19,28,30-pentazapentacyclo[23.3.1.12,5.015,23.016,20]triaconta-1(29),2(30),4,15,17,20,22,25,27-nonaen-6-yl]phenyl]-2-methyl-propanoic Acid]	B (a value above 5 °C and less than or equal to 10 °C is marked “B”)
Cn1nc2nc1-c1cc(ccc1F)S(=O)(=O)c1c(F)cc3[nH]ccc3c1CCS(=O)(=O)CC(C)(C)CCC[C@]2(C)c1cccc(CC(C)(C)C(=O)O)c1 [Compound 348A, 3-[3-[(6R)-22,28-Difluoro-3,6,10,10-tetramethyl-12,12,24,24-tetraoxo-12λ6,24λ6-dithia-3,4,19,30-tetrazapentacyclo[23.3.1.12,5.015,23.016,20]triaconta-1(29),2(30),4,15,17,20,22,25,27-nonaen-6-yl]phenyl]-2,2-dimethyl-propanoic Acid]	A (an ΔTagg value less than or equal to 5 °C is marked “A”)
Cn1nc2nc1-c1cc(ccc1F)S(=O)(=O)c1c(F)cc3[nH]cc(Cl)c3c1CCS(=O)(=O)CC(C)(C)CCC[C@]2(C)c1cccc(CC(C)(C)C(=O)O)c1 [Compound 348B, 3-[3-[(6R)-17-Chloro-22,28-difluoro-3,6,10,10-tetramethyl-12,12,24,24-tetraoxo-12λ6,24λ6-dithia-3,4,19,30-tetrazapentacyclo[23.3.1.12,5.015,23.016,20]triaconta-1(29),2(30),4,15,17,20,22,25,27-nonaen-6-yl]phenyl]-2,2-dimethyl-propanoic Acid]	A (an ΔTagg value less than or equal to 5 °C is marked “A”)
C[C@H](Cc1cccc([C@@]2(C)CCCC(C)(C)CS(=O)(=O)CCc3c(c(F)cc4[nH]ccc34)S(=O)(=O)c3ccnc(c3)-c3nc2nn3C)c1)C(=O)O [Compound 349, (2R)-3-[3-[(6R)-22-Fluoro-3,6,10,10-tetramethyl-12,12,24,24-tetraoxo-12λ6,24λ6-dithia-3,4,19,28,30-pentazapentacyclo[23.3.1.12,5.015,23.016,20]triaconta-1(29),2(30),4,15,17,20,22,25,27-nonaen-6-yl]phenyl]-2-methyl-propanoic Acid]	B (a value above 5 °C and less than or equal to 10 °C is marked “B”)
Cn1nc2nc1-c1cc(ccn1)S(=O)(=O)c1c(F)cc3[nH]ccc3c1CCS(=O)(=O)CC(C)(C)CCC[C@]2(C)c1cccc(CC(C)(C)C(=O)O)c1 [Compound 350, 3-[3-[(6R)-22-Fluoro-3,6,10,10-tetramethyl-12,12,24,24-tetraoxo-12λ6,24λ6-dithia-3,4,19,28,30-pentazapentacyclo[23.3.1.12,5.015,23.016,20]triaconta-1(29),2(30),4,15,17,20,22,25,27-nonaen-6-yl]phenyl]-2,2-dimethyl-propanoic Acid]	A (an ΔTagg value less than or equal to 5 °C is marked “A”)
C[C@@H](Cc1cccc([C@@]2(C)CCCC(C)(C)CS(=O)(=O)CCc3c(c(F)c(F)c4[nH]ccc34)S(=O)(=O)c3ccc(F)c(c3)-c3nc2nn3C)c1)C(=O)O [Compound 351, (2S)-2-Methyl-3-[3-[(6R)-21,22,28-trifluoro-3,6,10,10-tetramethyl-12,12,24,24-tetraoxo-12λ6,24λ6-dithia-3,4,19,30-tetrazapentacyclo[23.3.1.12,5.015,23.016,20]triaconta-1(29),2(30),4,15,17,20,22,25,27-nonaen-6-yl]phenyl]propanoic Acid]	B (a value above 5 °C and less than or equal to 10 °C is marked “B”)
Cn1nc2nc1-c1cc(ccn1)S(=O)(=O)c1c(F)c(F)c3[nH]ccc3c1CCS(=O)(=O)CC(C)(C)CCC[C@]2(C)c1cccc(CC(C)(C)C(=O)O)c1 [Compound 352, 3-[3-[(6R)-21,22-Difluoro-3,6,10,10-tetramethyl-12,12,24,24-tetraoxo-12λ6,24λ6-dithia-3,4,19,28,30-pentazapentacyclo[23.3.1.12,5.015,23.016,20]triaconta-1(29),2(30),4,15,17,20,22,25,27-nonaen-6-yl]phenyl]-2,2-dimethyl-propanoic Acid]	A (an ΔTagg value less than or equal to 5 °C is marked “A”)
C[C@@H](Cc1cccc([C@@]2(C)CCCC(C)(C)CS(=O)(=O)CCc3c[nH]c4c(F)c(F)c(cc34)Oc3ccc(F)c(c3)-c3nc2nn3C)c1)C(=O)O [Compound 353, (2S)-2-Methyl-3-[3-[(12R)-6,25,26-trifluoro-9,12,16,16-tetramethyl-18,18-dioxo-2-oxa-18λ6-thia-9,10,23,29-tetrazapentacyclo[19.5.2.13,7.18,11.024,28]triaconta-1(26),3,5,7(30),8(29),10,21,24,27-nonaen-12-yl]phenyl]propanoic Acid]	A (an ΔTagg value less than or equal to 5 °C is marked “A”)
COC(=O)[C@@H](C)Cc1cccc([C@@]2(C)CCCC(C)(C)CS(=O)(=O)CCc3c[nH]c4cc(F)c(cc34)Sc3ccc(F)c(c3)-c3nc2nn3C)c1 [Compound 354, Methyl (2S)-3-[3-[(12R)-6,26-difluoro-9,12,16,16-tetramethyl-18,18-dioxo-2,18λ6-dithia-9,10,23,29-tetrazapentacyclo[19.5.2.13,7.18,11.024,28]triaconta-1(26),3,5,7(30),8(29),10,21,24,27-nonaen-12-yl]phenyl]-2-methyl-propanoate]	A (an ΔTagg value less than or equal to 5 °C is marked “A”)
C[C@@H](Cc1cccc([C@@]2(C)CCCC(C)(C)CS(=O)(=O)CCc3c[nH]c4cc(F)c(cc34)[S+]([O-])c3ccc(F)c(c3)-c3nc2nn3C)c1)C(=O)O (some centres unmarked) [Compound 355]	A (an ΔTagg value less than or equal to 5 °C is marked “A”)
C[C@H](Cc1cccc([C@@]2(C)CCCC(C)(C)CS(=O)(=O)CCc3c(ncc4[nH]ccc34)Oc3ccc(F)c(c3)-c3nc2nn3C)c1)C(=O)O [Compound 356, (2R)-3-[3-[(6R)-28-Fluoro-3,6,10,10-tetramethyl-12,12-dioxo-24-oxa-12λ6-thia-3,4,19,22,30-pentazapentacyclo[23.3.1.12,5.015,23.016,20]triaconta-1(29),2(30),4,15,17,20,22,25,27-nonaen-6-yl]phenyl]-2-methyl-propanoic acid]	A (an ΔTagg value less than or equal to 5 °C is marked “A”)
C[C@@H](Cc1cccc([C@@]2(C)CCCC(C)(C)CS(=O)(=O)CCc3c(c(F)cc4[nH]ccc34)S(=O)(=O)c3cccc(c3)-c3nc2nn3C)c1)C(=O)O [Compound 357, (2S)-3-[3-[(6R)-22-Fluoro-3,6,10,10-tetramethyl-12,12,24,24-tetraoxo-12λ6,24λ6-dithia-3,4,19,30-tetrazapentacyclo[23.3.1.12,5.015,23.016,20]triaconta-1(29),2(30),4,15,17,20,22,25,27-nonaen-6-yl]phenyl]-2-methyl-propanoic Acid]	B (a value above 5 °C and less than or equal to 10 °C is marked “B”)
Cn1nc2nc1-c1cc(ccc1F)S(=O)(=O)c1c(F)c(F)c3[nH]ccc3c1CCS(=O)(=O)CC(C)(C)CCC[C@]2(C)c1cccc(CC(C)(C)C(=O)O)c1 [Compound 358, 2,2-Dimethyl-3-[3-[(6R)-21,22,28-trifluoro-3,6,10,10-tetramethyl-12,12,24,24-tetraoxo-12λ6,24λ6-dithia-3,4,19,30-tetrazapentacyclo[23.3.1.12,5.015,23.016,20]triaconta-1(29),2(30),4,15,17,20,22,25,27-nonaen-6-yl]phenyl]propanoic Acid]	A (an ΔTagg value less than or equal to 5 °C is marked “A”)
C[C@@H](Cc1cccc([C@@]2(C)CCCC(C)(C)CS(=O)(=O)CCc3c(c(F)cc4[nH]ncc34)Oc3ccc(F)c(c3)-c3nc2nn3C)c1)C(=O)O [Compound 359, (2S)-3-[3-[(6R)-22,28-Difluoro-3,6,10,10-tetramethyl-12,12-dioxo-24-oxa-12λ6-thia-3,4,18,19,30-pentazapentacyclo[23.3.1.12,5.015,23.016,20]triaconta-1(29),2(30),4,15,17,20,22,25,27-nonaen-6-yl]phenyl]-2-methyl-propanoic Acid]	B (a value above 5 °C and less than or equal to 10 °C is marked “B”)
